Patent US20200113913A1, “METHODS FOR HAIR FOLLICLE STEM CELL PROLIFERATION” (Frequency Therapeutics, Inc., priority 2017, published 2020)
Entries after “also recorded” stand apart in the source; their conditions may differ.

Key:
[1] = system: Dermal Papilla (DP) cells; assay: Stem Cell Proliferation Assay using dermal papilla; assay type: cell-based; details: Purmorphamine 1 μM; for Alkaline Phosphatase (Alp) colonies: Example 4, FIG. 4
Procedure: Dermal Papilla (DP) proliferation cell culture assay refers to a cell culture method to quantify the number of Dermal Papilla (DP) spheroids, size of DP spheroids, or number of DP cells in cell culture, which is measured at the end of the assay. DP cells refer to cells that express Alkaline Phosphatase (AP), and/or Versican, and/or Vimentin, and/or Sox2, and/or CD133.
The protocol for the Stem Cell Proliferation Assay using dermal papilla is as follows:
Basal media: DMEM/high-glucose medium and F12, supplemented with N2 1×, B27 1×, Streptomycin sulfate (100 μg/ml), Amphotericin B ([…]), and 1 mM Hepes.
Microdissection is used to remove intact hair follicles from a specimen. Intact follicles are incubated for 40 min at 37° C. in TrypLE™ (Thermo Fisher Scientific) with 1 mg/ml collagenase type 1 (sterilized using 0.2 μm syringe filter). The treated follicles are then triturated >30× using a 200 μl pipette tip. The volume is adjusted up to 1 ml with 1×PBS. The treated follicles are then passed through a 40 μm cell strainer to obtain a single cell suspension.
Twenty μl are applied to a cell counter to determine the number of cells per 1 ml. The remaining cell suspension is spun down at 1,000×g for 5 min at 4° C.
Standard media is prepared supplemented with growth factors (IGF, EGF, and FGF2 at 50 ng/ml). The cells are suspended in standard media with growth factors at 120,000 cells/ml and 250 μl (30,000 cells) are applied to each well of a 24-well plate (Corning Costar, 3534).
Each treatment condition is prepared at 2× concentration, enough for 250 μl/well for a final dilution of 1× in 500 μl. The final DMSO concentration is at about 0.2% for all.
250 μl 2× treatment media is applied to each well to have a final media volume per well of 500 μl. The final treatment concentration per well is 1×. The final cell density is 30,000 cells per well. […]
EVOS® transmitted light images are taken at 0, 5, 7, and 10 days in culture.
Spheroids are collected at 10 days in culture for immunoblotting, qPCR, or flow cytometry. Alternatively, spheroids may be applied to glass bottom dishes coated with poly-1-lysine for alkaline phosphatase (AP) staining, 5-ethynyl-2′-deoxyuridine (EdU) staining, and/or immunofluorescence for DP markers (e.g. Vimentin, Sox2, Versican, CD133) for microscopy.
Alternatively, cells or colonies may be assessed using microscopy to compare DP properties across conditions.

[2] = target: GSK3-alpha (Homo sapiens, UniProt P49840); details: cited from earlier work
[3] = target: GSK3-beta (Homo sapiens, UniProt P49841); details: cited from earlier work
[4] = Example 2, FIG. 2, 10 days in culture, Compound I-7 10 nM, alone or combined
[5] = 10 days in culture, Compound I-7 10 nM, alone or combined
[6] = Example 1, FIG. 1, 8 days in culture, CHIR99021 4 μM, alone or combined
[7] = Example 3, FIG. 3, SAG 3 nM, SAG HCl 500 nM, alone or with Compound I-7 10 nM

Sequence of GSK3-alpha (P49840 whole entry, species assumed): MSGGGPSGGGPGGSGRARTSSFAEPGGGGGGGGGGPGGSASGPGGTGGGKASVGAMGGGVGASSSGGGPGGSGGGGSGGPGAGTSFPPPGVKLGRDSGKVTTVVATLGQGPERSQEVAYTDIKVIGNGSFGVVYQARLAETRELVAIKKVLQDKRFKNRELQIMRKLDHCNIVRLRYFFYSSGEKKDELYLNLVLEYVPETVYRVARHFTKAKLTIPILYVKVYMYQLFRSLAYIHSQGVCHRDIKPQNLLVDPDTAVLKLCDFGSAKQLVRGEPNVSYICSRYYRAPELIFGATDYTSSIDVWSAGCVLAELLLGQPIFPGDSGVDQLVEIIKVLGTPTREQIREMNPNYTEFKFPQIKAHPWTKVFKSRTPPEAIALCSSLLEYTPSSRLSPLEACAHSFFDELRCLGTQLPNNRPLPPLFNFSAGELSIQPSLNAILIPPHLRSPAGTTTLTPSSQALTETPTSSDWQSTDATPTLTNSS
Sequence of GSK3-beta (P49841 whole entry, species assumed): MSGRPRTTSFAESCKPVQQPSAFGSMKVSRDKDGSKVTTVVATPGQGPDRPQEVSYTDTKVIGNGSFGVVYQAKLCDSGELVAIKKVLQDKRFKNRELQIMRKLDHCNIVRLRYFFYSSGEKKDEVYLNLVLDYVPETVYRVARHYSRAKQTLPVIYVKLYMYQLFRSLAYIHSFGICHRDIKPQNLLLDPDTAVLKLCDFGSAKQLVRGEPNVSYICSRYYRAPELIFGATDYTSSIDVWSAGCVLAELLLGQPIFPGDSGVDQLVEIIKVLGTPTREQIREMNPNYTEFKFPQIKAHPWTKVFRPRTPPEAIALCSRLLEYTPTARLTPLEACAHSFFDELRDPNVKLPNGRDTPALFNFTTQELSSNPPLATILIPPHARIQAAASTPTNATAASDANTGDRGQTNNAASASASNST

## O=C1NC(=O)C(c2cnc3ccccn23)=C1c1cn2c3c(cc(F)cc13)CN(C(=O)N1CCC(F)(F)CC1)CC2 [Compound I-7, 3-(2-(4,4-difluoropiperidine-1-carbonyl)-9-fluoro-1,2,3,4-tetrahydro-[1,4]diazepino[6,7,1-hi]indol-7-yl)-4-(imidazo[1,2-a]pyridin-3-yl)-1H-pyrrole-2,5-dione]
[1]; [4]
  DP colonies by light microscopy: more abundant colonies than FIG. 2A; also recorded: more abundant colonies than DP cells treated in control conditions
[1]; [5]
  Alkaline Phosphatase (Alp) colonies: small Alp colonies; also recorded: few Alp colonies

## Cc1c[nH]c(-c2cnc(NCCNc3ccc(C#N)cn3)nc2-c2ccc(Cl)cc2Cl)n1 [CHIR99021]
[1]; [6]
  DP colonies by light microscopy: more abundant colonies than FIG. 1A; also recorded: more abundant colonies than DP cells treated in control conditions

## c1ccc2c(Oc3nc(Nc4ccc(N5CCOCC5)cc4)c4ncn(C5CCCCC5)c4n3)cccc2c1 [Purmorphamine]
[1]; [6]
  DP colonies by light microscopy: slightly larger and more abundant colonies than FIG. 1A; also recorded: slightly larger and more abundant colonies than DP cells treated in control conditions
[1]; [4]
  DP colonies by light microscopy: slightly larger and more abundant colonies than FIG. 2A; also recorded: slightly larger and more abundant colonies than DP cells treated in control conditions
[1]; [7]
  DP colonies by light microscopy: form colonies
[1]; [5]
  Alkaline Phosphatase (Alp) colonies: few Alp colonies

## COc1ccccc1[C@@H]1C2=C(CC(C)(C)CC2=O)Nc2n[nH]c(C(F)(F)F)c21 [BRD1172]
[2]
  Potency in nM GSK3-alpha: 3 nM
[3]
  Potency in nM GSK3-beta: 10 nM

## CC1(C)CC(=O)C2=C(C1)Nc1n[nH]c(C(F)(F)F)c1[C@]2(C)c1ccccc1 [BRD1652]
[2]
  Potency in nM GSK3-alpha: 0.4 nM
[3]
  Potency in nM GSK3-beta: 4 nM

## Cc1ccc(C(=O)Nc2c[nH]nc2C(=O)NCCCOC(C)C)cn1 [GSK-3b XXII]
[2]
  Potency in nM GSK3-alpha: 2.3 nM

## CNC1CCC(N(Cc2cccc(-c3ccncc3)c2)C(=O)c2sc3ccccc3c2Cl)CC1 (centres unmarked) [SAG]
[1]; [7]
  DP colonies by light microscopy: form colonies

## N#Cc1ccc2[nH]c(O)c(-c3ccc(CN4CCOCC4)cn3)c2c1 [AZD1080]
[2]
  Potency in nM GSK3-alpha: 6.9 nM
